Reference: ChEMBL document CHEMBL5325490, “Lipophilic modification of salirasib modulates the antiproliferative and antimigratory activity” (Bioorg Med Chem, 2023)
The source made the active and inactive calls. The rule behind the calls is not given here.

Tests used:
SW1573 = test: Antiproliferative activity against human SW1573 cells assessed as inhibition of culture growth incubated for 48 hrs by SRB assay; type: functional
A549 = test: Antiproliferative activity against human A549 cells assessed as inhibition of culture growth incubated for 48 hrs by SRB assay; type: functional
HeLa = test: Antiproliferative activity against human HeLa cells assessed as inhibition of culture growth incubated for 48 hrs by SRB assay; type: functional
HBL-100 = test: Antiproliferative activity against human HBL-100 cells assessed as inhibition of culture growth incubated for 48 hrs by SRB assay; type: functional
T47D = test: Antiproliferative activity against human T47D cells assessed as inhibition of culture growth incubated for 48 hrs by SRB assay; type: functional
NCI-H1299 [1] = test: Antiproliferative activity against human H1299 cells assessed as inhibition of culture growth incubated for 48 hrs by SRB assay; type: functional
Plasmodium falciparum = test: Antimalarial activity against Plasmodium falciparum assessed as inhibition of parasite growth measured after 72 hrs by NLuc method; type: functional, organism-based
NCI-H1299 [2] = test: Anti-invasive activity in human H1299 cells assessed as reduction in cell invasion at 50 uM incubated for 24 hrs by transwell migration assay; type: functional, cell-based
NCI-H1299 [3] = test: Antimigratory activity against human H1299 cells assessed as reduction in cell migration at 50 uM incubated for 24 hrs by wound healing assay; type: functional, cell-based

For `COc1cc([C@@H]2c3cc4c(cc3[C@@H](O[C@@H]3O[C@@H]5CO[C@@H](C)O[C@H]5[C@H](O)[C@H]3O)[C@H]3COC(=O)[C@H]23)OCO4)cc(OC)c1O` [ETOPOSIDE], the GI50 (SW1573) was 14 µM, the GI50 (A549) was 1.5 µM and the GI50 (HeLa) was 3.3 µM. For the same molecule, the GI50 (HBL-100) was 1.4 µM and the GI50 (T47D) was 22 µM.
With `C/C(=C\CSc1ccccc1C(=O)O)CCCC(C)CCCC(C)CCCC(C)C` (centres undefined) the GI50 (SW1573) was 15 µM, the GI50 (A549) was 14 µM and the GI50 (HeLa) was 12 µM. The GI50 (NCI-H1299 [1]) was > 100 µM, the GI50 (HBL-100) was 14 µM and the GI50 (T47D) was 18 µM.
For `C/C(=C\Cn1cc(CSc2ccccc2C(=O)O)nn1)CCC[C@H](C)CCC[C@H](C)CCCC(C)C`, the GI50 (SW1573) was 5.8 µM, the GI50 (A549) was 5.4 µM and the GI50 (HeLa) was 4.3 µM. For the same molecule, the IC50 (Plasmodium falciparum) was 9.75 µM, the GI50 (NCI-H1299 [1]) was 59 µM and the GI50 (HBL-100) was 10 µM. For the same molecule, the GI50 (T47D) was 9.6 µM.
With `CC(C)=CCC/C(C)=C/CSc1ccccc1C(=O)O` the Activity (NCI-H1299 [2]) was “Active” and the Activity (NCI-H1299 [3]) was “Active”.
For `CCCCCCCCSc1ccccc1C(=O)O`, the Activity (NCI-H1299 [2]) was “Active” and the Activity (NCI-H1299 [3]) was “Active”.
`CC[C@@]1(O)C(=O)OCc2c1cc1n(c2=O)Cc2cc3ccccc3nc2-1` [CAMPTOTHECIN] gave a GI50 (SW1573) of 0.3 µM, a GI50 (HeLa) of 0.6 µM and a GI50 (HBL-100) of 0.2 µM. It also gave a GI50 (T47D) of 2 µM.
`CC(C)=CCC/C(C)=C/CC/C(C)=C/CSc1ccccc1C(=O)O` [SALIRASIB] showed a GI50 (SW1573) of 41 µM, a GI50 (A549) of 34 µM and a GI50 (HeLa) of 34 µM. It also gave a GI50 (NCI-H1299 [1]) of 85 µM, a GI50 (HBL-100) of 22 µM and a GI50 (T47D) of 42 µM.
For `CC(C)=CCC/C(C)=C/CC/C(C)=C/Cn1cc(CSc2ccccc2C(=O)O)nn1`, the GI50 (SW1573) was 40 µM, the GI50 (A549) was 40 µM and the GI50 (HeLa) was 33 µM. The GI50 (NCI-H1299 [1]) was 102 µM, the GI50 (HBL-100) was 33 µM and the GI50 (T47D) was 52 µM.
With `CC(C)=CCC/C(C)=C/CC/C(C)=C/CC/C(C)=C/CSc1ccccc1C(=O)O` the GI50 (SW1573) was 37 µM, the GI50 (A549) was 38 µM and the GI50 (HeLa) was 29 µM. The GI50 (HBL-100) was 23 µM and the GI50 (T47D) was 41 µM.
With `CC(C)=CCC/C(C)=C/Cn1cc(CSc2ccccc2C(=O)O)nn1` the Activity (NCI-H1299 [3]) was “inactive”.
`CCCCCCCCCCCCCCCCn1cc(CSc2ccccc2C(=O)O)nn1` was tested, and the GI50 (SW1573) was 9.3 µM, the GI50 (A549) was 9.2 µM and the GI50 (HeLa) was 6.9 µM. The GI50 (NCI-H1299 [1]) was 27 µM, the GI50 (HBL-100) was 14 µM and the GI50 (T47D) was 20 µM.
For `CCCCCCCCn1cc(CSc2ccccc2C(=O)O)nn1`, the GI50 (SW1573) was 47 µM, the GI50 (A549) was 61 µM and the GI50 (HeLa) was 39 µM. For the same molecule, the Activity (NCI-H1299 [3]) was “inactive”, the GI50 (NCI-H1299 [1]) was > 100 µM and the GI50 (HBL-100) was 40 µM. For the same molecule, the GI50 (T47D) was 93 µM.
With `CCCCCCCCCCSc1ccccc1C(=O)O` the Activity (NCI-H1299 [2]) was “inactive” and the Activity (NCI-H1299 [3]) was “Active”.
